The values that follow come from patent US8846638B2, “Macrocyclic nucleoside phosphoramidate derivatives” (Enanta Pharmaceuticals, Inc., priority 2012, dated 2014).

As a reminder, the EC50 is the concentration at which the effect is half-maximal.

Assay [1] has as its system HCV 1a genotype replicon (strain H77, Huh-1a7 cell line). Nature of the assay: HCV replicon assay, qRT-PCR, genotype 1a (Huh-1a7 cells). The class given is cell-based. To be noted: Hepatitis C virus; Genotype-1a replicon, HCV RNA by qRT-PCR normalized to GAPDH RNA. The source says: (§1) HCV replicon cell lines (kindly provided by R. Bartenschlager) isolated from colonies as described by Lohman et al. (Lohman et al. (1999) Science 285: 110-113, expressly incorporated by reference in its entirety) and used for all experiments. One of the HCV replicon cell lines (strain Con1, genotype 1b) has the nucleic acid sequence set forth in EMBL Accession No.: AJ242651, the coding sequence of which is from nucleotides 1801 to 8406. Another replicon cell line (strain H77, genotype 1a) was constructed as described by Yi et. al. (Yi et. al. (2004) Journal of Virology 78(15):7904-15). The coding sequences of the published HCV replicons were synthesized and subsequently assembled in plasmids using standard molecular biology techniques.
(§2) One replicon cell line (“SGR 11-7”) stably expresses HCV replicon RNA, genotype 1b, which consists of (i) the HCV 5′UTR fused to the first 12 amino acids of the capsid protein, (ii) the neomycin phosphotransferase gene (neo), (iii) the IRES from encephalomyocarditis virus (EMCV) and (iv) HCV […] to NS5B genes and the HCV 3′UTR. Another replicon cell line (“Huh-1a7”) described by Yi et. al. (Yi et. al. (2004) Journal of Virology 78(15):7904-15, expressly incorporated by reference in its entirety) stably expresses HCV replicon RNA, genotype 1a, which consists of (i) the HCV 5′UTR fused to the first 12 amino acids of the capsid protein, (ii) the HIV tat protein, (iii) the neomycin phosphotransferase gene (neo), (iv) the IRES from encephalomyocarditis virus (EMCV) and (vi) HCV NS3 to NS5B genes that harbor cell culture adaptive mutations (Q1067R, K1691R, S2204I) and the HCV 3′UTR.
(§3) These cell lines are maintained at 37° C., 5% CO2, 100% relative humidity in DMEM (Cat#11965-084, Invitrogen), with 10% fetal calf serum (“FCS”, Invitrogen), 1% non-essential amino acids (Invitrogen), 1% of Glutamax (Invitrogen), 1% of 10× penicillin/streptomycin (Cat#15140-122, Invitrogen) and Geneticin (Cat#10131-027, Invitrogen) at 0.75 mg/ml or 0.25 mg/ml for 11-7 and Huh-1a7 cells, respectively.
(§4) EC50 values of single agent compounds were determined by HCV RNA detection using quantitative RT-PCR, according to the manufacturer's instructions, with a TAQMAN® One-Step RT-PCR Master Mix Reagents Kit (Cat#AB 4309169, Applied Biosystems) on an ABI Model 7500 thermocycler. EC50 values of combinations are similarly determined by HCV RNA detection using quantitative RT-PCR. The TAQMAN primers to use for detecting and quantifying HCV RNA obtained from Integrated DNA Technologies. HCV RNA is normalized to GAPDH RNA levels in drug-treated cells, which is detected and quantified using the Human GAPDH Endogenous Control Mix (Applied Biosystems, AB 4310884E). Total cellular RNA is purified from 96-well plates using the RNAqueous 96 kit (Ambion, Cat#AM1812). Chemical agent cytotoxicity is evaluated using an MTS assay according to the manufacturer's directions (Promega).
(§5) The compounds of the present invention can be effective against the HCV 1a and 1b genotypes. It should also be understood that the compounds of the present invention can inhibit multiple genotypes of HCV. In one embodiment, compounds of the present invention are active against the 1a, 1b, 2a, 2b, 3a, 4a, and 5a genotypes. […] EC50 ranges against HCV 1a or 1b are as follows: A>1 μM; B 0.1-1 μM; C<0.1 μM.

The subject of assay [2] is HCV 1b genotype replicon (strain Con1, SGR 11-7 cell line). Nature of the assay: HCV replicon assay, qRT-PCR, genotype 1b (SGR 11-7 cells). The note with it: Hepatitis C virus; Genotype-1b replicon, HCV RNA by qRT-PCR normalized to GAPDH RNA. Type of assay: cell-based.
Description: as §1, §2, §3, §4, §5
For orientation: Replicon systems follow genome replication, usually without infectious particles.

Consider `C[C@@H]1NP(=O)(Oc2ccccc2)OCC2OC(n3cnc4c(nc(N)nc43)OCCCCCCCCOC1=O)[C@](C)(O)[C@@H]2O` (stereo partly shown) [Example 9], for which the EC50 in assay [1] and in assay [2] was 100 to 1000 nM throughout.
Regarding `CC(C)C[C@@H]1NP(=O)(Oc2cccc3ccccc23)OCC2OC(n3cnc4c(nc(N)nc43)OCCCCCCCOC1=O)[C@](C)(O)[C@@H]2O` (stereo partly shown) [Example 4], the values for the EC50 in assay [1] and in assay [2] were 100 to 1000 nM and greater than 1000 nM, respectively.
In the same order, the values of `C[C@@H]1NP(=O)(Oc2cccc3ccccc23)OCC2OC(n3cnc4c(nc(N)nc43)OCCCCCCOC1=O)[C@](C)(O)[C@@H]2O` (stereo partly shown) [Example 7] are less than 100 nM and 100 to 1000 nM.
For `C[C@@H]1NP(=O)(Oc2ccccc2)OCC2OC(n3cnc4c(nc(N)nc43)OCCCCCCCOC1=O)[C@](C)(O)[C@@H]2O` (stereo partly shown) [Example 8] the same measures were 100 to 1000 nM and 100 to 1000 nM.
In the same order, the values of `C[C@@H]1NP(=O)(Oc2cccc3ccccc23)OCC2OC(n3cnc4c(nc(N)nc43)OCCCCCOCCCOC1=O)[C@](C)(O)[C@@H]2O` (stereo partly shown) [Example 5] are 100 to 1000 nM and greater than 1000 nM.
Consider `C[C@@H]1NP(=O)(Oc2cccc3ccccc23)OCC2OC(n3cnc4c(nc(N)nc43)OCCC=CCCCOC1=O)[C@](C)(O)[C@@H]2O` (stereo partly shown) [Example 10], for which the EC50 in assay [1] and in assay [2] was 100 to 1000 nM each time.
Take `C[C@@H]1NP(=O)(Oc2cccc3ccccc23)OCC2OC(n3cnc4c(nc(N)nc43)OCCCCCCCOC1=O)[C@](C)(O)[C@@H]2O` (stereo partly shown) [Example 3]: the EC50 in assay [1] was less than 100 nM; in assay [2], 100 to 1000 nM.
For the molecule `C[C@@H]1NP(=O)(Oc2cccc3ccccc23)OCC2OC(n3cnc4c(nc(N)nc43)OCCCCC(F)(F)COC1=O)[C@](C)(O)[C@@H]2O` (stereo partly shown) [Example 2], the 50% effective concentration (EC50) in assay [1] and in assay [2] was 100 to 1000 nM each time.
